From patent publication US10577349B2 (Sanford Burnham Prebys Medical Discovery Institute, priority 2015, dated 2020)

Legend:
[1] = biological target: EmCV Cap-independent translation; test: In vitro translation assay, FF-EmCV-Ren construct, cap-independent (Ren luciferase); type: biochemical, rabbit reticulocyte lysates
Text: (§1) The bicistronic dual-reporter constructs that contain the firefly luciferase (FF) sequence, followed by the (encephalomyocarditis virus) EmCV and Hepatitis C virus (HCV) IRES, respectively, and the Renilla reniformis (Ren) luciferase sequence, has been previously described (Bordeleau Me., et al. Functional characterization of IRESes by an inhibitor of the RNA helicase eIF4A. Nature chemical biology. 2006; 2:213-20). For measurement of translation from the FF-EmCV-Ren and FF-HCV-Ren constructs, rabbit reticulocyte lysates (RRL) (Life Technologies, Carlsbad, Calif., USA) and the Dual-Glo (Promega, Madison, Wis., USA) read-outs were chosen. Two μl rabbit reticulocyte lysates mixed with Translation Mix 20× (-Met) and Translation Mix 20× (-Leu) in a ratio of 1:1 were pre-incubated with test compounds in 1536-well plates for 1 h at room temperature. Then, translation was started by adding 0.1 μg RNA per well and incubated for 2 h at 30° C. After a short chill phase, 2.5 μl Dual-Glo reagent 1 was added to each well and incubated for 10 min before reading the FF luciferase activity with the ViewLux uHTS Microplate Imager (Perkin Elmer, Waltham, Mass., USA). Directly after, 2.5 μl Dual-Glo reagent 2 was dispensed to each well and incubated at room temperature for 10 min before reading the Ren luciferase activity on the ViewLux. To exclude the possibility that test compounds interfere with any of the luciferase activities, a counter assay was performed in which the compounds were added after the completion of the in vitro translation.

[2] = biological target: EmCV Cap-dependent translation; test: In vitro translation assay, FF-EmCV-Ren construct, cap-dependent (FF luciferase); type: biochemical, rabbit reticulocyte lysates
Text: as §1

[3] = biological target: HCV cap-independent translation; test: In vitro translation assay, FF-HCV-Ren construct, cap-independent (Ren luciferase); type: biochemical, rabbit reticulocyte lysates
Text: as §1

[4] = system: A375; test: 48 h Cytotoxicity A375; type: cell-based; details: Homo sapiens, A-375
[5] = biological target: HCV cap-dependent translation; test: In vitro translation assay, FF-HCV-Ren construct, cap-dependent (FF luciferase); type: biochemical, rabbit reticulocyte lysates
Text: as §1

| Compound | IC50 [1] [µM] | IC50 [2] [µM] | IC50 [3] [µM] | IC50 [4] [µM] | IC50 [5] [µM] |
| --- | --- | --- | --- | --- | --- |
| O=C(/C=C/c1ccc(C(F)(F)F)cc1)c1c(-c2ccccc2)c2cc(Cl)ccc2[nH]c1=O [Compound 39, 6-Chloro-4-phenyl-3-[3-(4-trifluoromethyl-phenyl)-acryloyl]-1H-quinolin-2-one] | 2 to 10 | 2 to 10 | 10 to 20 | 2 to 10 | 10 to 20 |
| O=C(/C=C/c1nc2cc(Cl)c(Cl)cc2[nH]1)c1c(-c2ccccc2)c2cc(Cl)ccc2[nH]c1=O [Compound 63, 6-Chloro-3-[3-(5,6-dichloro-1H-benzoimidazol-2-yl)-acryloyl]-4-phenyl-1H-quinolin-2-one] | 2 to 10 | 2 to 10 | 2 to 10 | 2 to 10 | 2 to 10 |
| Cn1ccnc1/C=C/C(=O)c1c(-c2ccccc2)c2cc(Cl)ccc2[nH]c1=O [Compound 45, 6-Chloro-3-[3-(1-methyl-1H-imidazol-2-yl)-acryloyl]-4-phenyl-1H-quinolin-2-one] | 2 to 10 | 2 to 10 | 2 to 10 | 2 to 10 | 10 to 20 |
| N#Cc1ccc(-c2c(C(=O)/C=C/c3ccccn3)c(=O)[nH]c3ccc(Cl)cc23)cc1 [Compound 90, 4-[3-((2E)-3-(2-pyridyl)prop-2-enoyl)-6-chloro-2-oxo-4-hydroquinolyl]benzenecarbonitrile] | 2 to 10 | 2 to 10 | 2 to 10 | < 2 | 10 to 20 |
| CN(C)c1ccc(/C=C/C(=O)c2c(-c3ccccc3)c3cc(Cl)ccc3[nH]c2=O)cc1 [Compound 35, 6-Chloro-3-[3-(4-dimethylamino-phenyl)-acryloyl]-4-phenyl-1H-quinolin-2-one] | > 20 | > 20 | > 20 | > 20 | > 20 |
| O=C(/C=C/c1cncc(F)c1)c1c(-c2cncc(Br)c2)c2cc(Cl)ccc2[nH]c1=O [Compound 103, (E)-4-(5-Bromo-pyridin-3-yl)-6-chloro-3-[3-(5-fluoro-pyridin-3-yl)-acryloyl]-1H-quinolin-2-one] | 2 to 10 | 2 to 10 | 2 to 10 | 2 to 10 | 10 to 20 |
| O=C(/C=C/c1nc2ccccc2[nH]1)c1c(-c2cccs2)c2cc(Cl)ccc2[nH]c1=O [Compound 9, 3-(3-1H-Benzoimidazol-2-yl-acryloyl)-6-chloro-4-thiophen-2-yl-1H-quinolin-2-one] | 2 to 10 | 2 to 10 | 10 to 20 | 2 to 10 | 10 to 20 |
| O=C(CCc1nc2ccccc2[nH]1)c1c(-c2ccccc2)c2cc(Cl)ccc2[nH]c1=O [Compound 68, 3-(3-1H-Benzoimidazol-2-yl-propionyl)-6-chloro-4-phenyl-1H-quinolin-2-one] | > 20 | > 20 | > 20 | > 20 | > 20 |
| Cc1ccnc(C#CC(=O)c2c(-c3ccccc3)c3cc(Cl)ccc3[nH]c2=O)c1 [Compound 112, 6-Chloro-3-[3-(4-methyl-pyridin-2-yl)-propynoyl]-4-phenyl-1H-quinolin-2-one] | > 20 | > 20 | > 20 | > 20 | > 20 |
| O=C(/C=C/c1nc2ccccc2[nH]1)c1c(-c2ccccn2)c2cc(Cl)ccc2[nH]c1=O [Compound 8, 3-(3-1H-Benzoimidazol-2-yl-acryloyl)-6-chloro-4-pyridin-2-yl-1H-quinolin-2-one] | > 20 | > 20 | > 20 | 10 to 20 | > 20 |
| CCn1c(/C=C/C(=O)c2c(-c3ccccc3)c3cc(Cl)ccc3[nH]c2=O)nc2cc(Cl)c(Cl)cc21 [Compound 64, 6-Chloro-3-[3-(5,6-dichloro-1-ethyl-1H-benzoimidazol-2-yl)-acryloyl]-4-phenyl-1H-quinolin-2-one] | 10 to 20 | 2 to 10 | > 20 | 2 to 10 | 10 to 20 |
| Cc1ccc(-c2c(C(=O)/C=C/c3ccccn3)c(=O)[nH]c3ccc(Cl)cc23)cc1 [Compound 86, 3-((2E)-3-(2-pyridyl)prop-2-enoyl)-6-chloro-4-(4-methylphenyl)hydroquinolin-2-one] | 2 to 10 | 2 to 10 | 2 to 10 | 2 to 10 | 2 to 10 |
| Cn1ccc2cc(/C=C/C(=O)c3c(-c4ccccc4)c4cc(Cl)ccc4[nH]c3=O)ccc21 [Compound 30, 6-Chloro-3-[3-(1-methyl-1H-indol-5-yl)-acryloyl]-4-phenyl-1H-quinolin-2-one] | > 20 | > 20 | > 20 | 2 to 10 | > 20 |
| O=C(/C=C/c1ccccn1)c1c(-c2ccc(OC(F)(F)F)cc2)c2cc(Cl)ccc2[nH]c1=O [Compound 88, 3-((2E)-3-(2-pyridyl)prop-2-enoyl)-6-chloro-4-[4-(trifluoromethoxy)phenyl]hydroquinolin-2-one] | 2 to 10 | 2 to 10 | 2 to 10 | 2 to 10 | 2 to 10 |
| O=C(/C=C/c1ccc(Cl)s1)c1c(-c2ccccc2)c2cc(Cl)ccc2[nH]c1=O [Compound 113, 6-Chloro-3-[3-(5-chloro-thiophen-2-yl)-acryloyl]-4-phenyl-1H-quinolin-2-one] | 2 to 10 | 2 to 10 | 2 to 10 | 2 to 10 | 2 to 10 |
| Nc1ccc2[nH]c(=O)c(C(=O)/C=C/c3nc4ccccc4[nH]3)c(-c3ccccc3)c2c1 [Compound 15, 6-Amino-3-(3-1H-benzoimidazol-2-yl-acryloyl)-4-phenyl-1H-quinolin-2-one] | 10 to 20 | 10 to 20 | > 20 | > 20 | 10 to 20 |
| CCn1c(/C=C/C(=O)c2c(-c3ccccc3)c3cc(Cl)ccc3n(CC)c2=O)nc2ccccc21 [Compound 60, (E)-6-chloro-1-ethyl-3-(3-(1-ethyl-1H-benzo[d]imidazol-2-yl)acryloyl)-4-phenylquinolin-2(1H)-one] | > 20 | > 20 | 10 to 20 | 2 to 10 | 10 to 20 |
| O=C(/C=C/c1cc(Cl)ccn1)c1c(-c2ccccc2)c2cc(Cl)ccc2[nH]c1=O [Compound 71, 3-[(2E)-3-(4-chloro(2-pyridyl))prop-2-enoyl]-6-chloro-4-phenylhydroquinolin-2-one] | > 20 | > 20 | > 20 | 2 to 10 | 10 to 20 |
| CN(C)c1ccc(/C=C/C(=O)c2c(-c3ccccc3)c3cc([N+](=O)[O-])ccc3[nH]c2=O)cc1 [Compound 17, 3-[3-(4-Dimethylamino-phenyl)-acryloyl]-6-nitro-4-phenyl-1H-quinolin-2-one] | > 20 | > 20 | > 20 | > 20 | > 20 |
| O=C(/C=C/c1ccccc1)c1c(-c2ccccc2)c2cc(Cl)ccc2[nH]c1=O [Compound 31, 6-Chloro-4-phenyl-3-(3-phenyl-acryloyl)-1H-quinolin-2-one] | 2 to 10 | 2 to 10 | 2 to 10 | 2 to 10 | 2 to 10 |
| N#Cc1cncc(-c2c(C(=O)/C=C/c3cncc(F)c3)c(=O)[nH]c3ccc(Cl)cc23)c1 [Compound 105, 5-{3-[(2E)-3-(5-fluoro(3-pyridyl))prop-2-enoyl]-6-chloro-2-oxo-4-hydroquinolyl}pyridine-3-carbonitrile] | 10 to 20 | 10 to 20 | 10 to 20 | 2 to 10 | 10 to 20 |
| O=C(/C=C/c1nc2ccccc2[nH]1)c1c(-c2ccc(C(F)(F)F)cc2)c2cc(Cl)ccc2[nH]c1=O [Compound 1, 3-(3-1H-Benzoimidazol-2-yl-acryloyl)-6-chloro-4-(4-trifluoromethyl-phenyl)-1H-quinolin-2-one] | 2 to 10 | 2 to 10 | 2 to 10 | 2 to 10 | 2 to 10 |
| O=C(/C=C/c1cncnc1)c1c(-c2ccccc2)c2cc(Cl)ccc2[nH]c1=O [Compound 37, 6-Chloro-4-phenyl-3-(3-pyrimidin-5-yl-acryloyl)-1H-quinolin-2-one] | 2 to 10 | 2 to 10 | 2 to 10 | 2 to 10 | 2 to 10 |
| Cc1ccnc(/C=C/C(=O)c2c(-c3ccccc3)c3cc(Cl)ccc3[nH]c2=O)c1 [Compound 70, 3-[(2E)-3-(4-methyl(2-pyridyl))prop-2-enoyl]-6-chloro-4-phenylhydroquinolin-2-one] | 2 to 10 | 2 to 10 | 2 to 10 | 2 to 10 | 2 to 10 |
